# Measured values taken from publication PMC8064475, “Synthesis of Biobased Phloretin Analogues: An Access to Antioxidant and Anti-Tyrosinase Compounds for Cosmetic Applications” (Antioxidants, 2021).
# Entries after “also recorded” stand apart in the source; their conditions may differ.
# Experiments:
# [1] = UV-Vis spectra at 10 µM in ethanol; assay type: physicochemical; details: 1 cm quartz cuvette, band I
# Method: (§1) UV-Vis spectra were recorded at 10 µM in ethanol on a Cary 60 UV-Vis spectrophotometer by Agilent (Wilmington, DE, USA) in a 1 cm quartz cuvette. The absorbance loss was evaluated by comparison of absorbances at the λmax before and after 1 h of irradiation into a Rayonet® RPR-200 (λ = 300 nm, P = 8.32 W.m^−2, stirring, T = 35 °C) (SNE Ultraviolet Co. Branford, CT, USA) using 14 RPR-3000A lamps.
# [2] = DPPH radical scavenging assay; assay type: biochemical; details: in ethanol; DPPH 200 µM; read at 520 nm over 7.5 h; read-out: EC50 for DPPH inhibition
# Method: The radical scavenging activity of all compounds was tested through 2,2-diphenyl-1-picryhydrazyl (DPPH) assay which determines the EC50 values as previously described. The test consists of adding 190 µL of DPPH solution (200 µM) in ethanol to 10 µL of potential antiradical molecule solution at different concentrations (from 800 to 12.5 µM). The reaction was carried out in 96-well microplates and the disappearance of DPPH radicals was monitored at 520 nm every 5 min during 7.5 h in a multiplate Biotek (Winooski, VT, USA), Epoch 2 spectrophotometer. The EC50 values, corresponding to the concentration needed to reduce half of the initial population of DPPH radicals, were provided by the crossing point of the curves of %DPPH and %reduced DPPH. Curves dots were obtained using an average of the last six measurements for each concentration in Regressi® software version 3.99.
# [3] = Photostability: absorbance loss after UV irradiation; assay type: physicochemical; details: 10 µM in ethanol; 1 h irradiation at 300 nm; absorbance at λmax before vs after
# Method: as §1
# mushroom tyrosinase = assay: Mushroom tyrosinase inhibition assay; assay type: biochemical; details: tyrosine substrate; ammonium formate buffer pH 6.4; 37 °C; dopachrome at 420 nm
# Method: Tyrosinase inhibition activity was evaluated using the method used by Peyrot et al.. […] Then, 20 µL of tyrosine at 4.42 mM in ammonium formate buffer was added. […] IC50 values, corresponding to the concentration required to inhibit 50% of tyrosinase activity, were obtained using GraphPad Prism® software version 6.01.
Molecule,Maximal absorbance [1],EC50 [2] [µM],Loss of absorbance [3],IC50 (mushroom tyrosinase) [µM],IC50 for mushroom tyrosinase inhibition (mushroom tyrosinase)
"3,4,4′-trihydroxy-3-methoxy-chalcone [a7]",0.38,31.5,46.2%,2300 ± 100,
"COc1ccc(C(=O)CC(=O)c2ccc(C(C)(C)C)cc2)cc1 [Avobenzone, avobenzone, reference compound]",0.37,,0.6%,,
"COc1ccc(O)c(C(C)(C)C)c1 [BHA, butylated hydroxyanisol, reference compound]",,18.5,,,
"Cc1cc(C(C)(C)C)c(O)c(C(C)(C)C)c1 [BHT, butylated hydroxytoluene, reference compound]",,28,,,
"CCCCC(CC)COC(=O)C=Cc1ccc(OC)cc1 (stereo not drawn) [Octinoxate, octinoxate, reference compound]",0.24,,26.0%,,
"O=C(CCc1ccc(O)cc1)c1c(O)cc(O)cc1O [Phloretin, phloretin]",0.23,24.5,5.9%,> 10000,did not exhibit tyrosinase inhibition activity
"O=C(/C=C/c1ccc(O)cc1)c1ccc(O)cc1 [a1, 4,4′-dihydroxy-chalcone]",0.65,> 80,77.6%,100 ± 10,
"O=C(/C=C/c1ccc(O)c(O)c1)c1ccc(O)cc1 [a2, 3,4,4′-trihydroxy-chalcone]",,31.5,,,
"O=C(/C=C/c1ccc(O)cc1)c1ccc(O)c(O)c1 [a3, 3′,4,4′-trihydroxy-chalcone]",,15.5,,> 10000,did not show any activity
"O=C(/C=C/c1ccc(O)c(O)c1)c1ccc(O)c(O)c1 [a4, 3,3′,4,4′-tetrahydroxy-chalcone]",0.47,8,75.7%,,
"COc1cc(/C=C/C(=O)c2ccc(O)cc2)ccc1O [a5, 4,4′-dihydroxy-3-methoxy-chalcone]",,71,,2300 ± 100,
"COc1cc(C(=O)/C=C/c2ccc(O)cc2)ccc1O [a6, 4,4′-dihydroxy-3′-methoxy-chalcone]",,> 80,16.1%,140 ± 10,
"COc1cc(/C=C/C(=O)c2ccc(O)c(O)c2)ccc1O [a8, 3′,4,4′-trihydroxy-3-methoxy-chalcone]",,9.5,,> 10000,
"COc1cc(C(=O)/C=C/c2ccc(O)cc2)cc(OC)c1O [a9, 4,4′-dihydroxy-3′,5′-dimethoxy-chalcone]",,> 80,,130 ± 10,
"COc1cc(/C=C/C(=O)c2ccc(O)c(OC)c2)ccc1O [a10, 4,4′-dihydroxy-3,3′-dimethoxy-chalcone]",,43.5,,1800 ± 90,
"COc1cc(C(=O)/C=C/c2cc(OC)c(O)c(OC)c2)ccc1O [a11, 4,4′-dihydroxy-3,3′,5-trimethoxy-chalcone]",0.27,45,,7900 ± 400,
"COc1cc(/C=C/C(=O)c2cc(OC)c(O)c(OC)c2)cc(OC)c1O [a12, 4,4′-dihydroxy-3,3′,5,5′-tetramethoxy-chalcone]",,43,,> 10000,
"O=C(CCc1ccc(O)cc1)c1ccc(O)cc1 [b1, 4,4′-dihydroxy-dihydrochalcone]",0.23,> 80,13.8%,> 10000,
"O=C(CCc1ccc(O)c(O)c1)c1ccc(O)cc1 [b2, 3,4,4′-trihydroxy-dihydrochalcone]",0.21,35,11.4%,> 10000,
"O=C(CCc1ccc(O)cc1)c1ccc(O)c(O)c1 [b3, 3′,4,4′-trihydroxy-dihydrochalcone]",,16,Negative loss of absorbance; also recorded: higher absorbance higher after 1 h of irradiation,> 10000,
"O=C(CCc1ccc(O)c(O)c1)c1ccc(O)c(O)c1 [b4, 3,3′,4,4′-tetrahydroxy-dihydrochalcone]",,15,Negative loss of absorbance; also recorded: higher absorbance higher after 1 h of irradiation,> 10000,
"COc1cc(CCC(=O)c2ccc(O)cc2)ccc1O [b5, 4,4′-dihydroxy-3-methoxy-dihydrochalcone]",,28,,500 ± 30,
"COc1cc(C(=O)CCc2ccc(O)cc2)ccc1O [b6, 4,4′-dihydroxy-3′-methoxy-dihydrochalcone]",,> 80,,> 10000,
"COc1cc(C(=O)CCc2ccc(O)c(O)c2)ccc1O [b7, 3,4,4′-trihydroxy-3-methoxy-dihydrochalcone]",,32,,> 10000,
"COc1cc(CCC(=O)c2ccc(O)c(O)c2)ccc1O [b8, 3′,4,4′-trihydroxy-3-methoxy-dihydrochalcone]",,11,0.1%,70 ± 10,
"COc1cc(C(=O)CCc2ccc(O)cc2)cc(OC)c1O [b9, 4,4′-dihydroxy-3′,5′-dimethoxy-dihydrochalcone]",0.19,> 80,67.7%,> 10000,
"COc1cc(CCC(=O)c2ccc(O)c(OC)c2)ccc1O [b10, 4,4′-dihydroxy-3,3′-dimethoxydihydrochalcone]",0.13,29.5,20%,270 ± 10,
"COc1cc(C(=O)CCc2cc(OC)c(O)c(OC)c2)ccc1O [b11, 4,4′-dihydroxy-3,3′,5-trimethoxy-dihydrochalcone]",,33,Full loss of absorbance,> 10000,
"COc1cc(CCC(=O)c2cc(OC)c(O)c(OC)c2)cc(OC)c1O [b12, 4,4′-dihydroxy-3,3′,5,5′-tetramethoxy-dihydrochalcone]",,42.5,,> 10000,
